The record followed here is patent publication US20240148745A1, “COMPOUNDS FOR USE IN PROGRESSIVE MULTIPLE SCLEROSIS” (FONDAZIONE CENTRO SAN RAFFAELE, priority 2021, published 2024).

The structures appear in SMILES notation. Entries after “also recorded” stand apart in the source; their conditions may differ.

Series [1] concerns rat oligodendrocyte progenitor CG4 line. Put plainly: Differentiation assay on rat oligodendrocyte progenitor CG4 line (HCS, mCherry+). The format is cell-based. The following applies: secondary screen of 49 selected compounds, 1 μM, 5 days. The gist of the method: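 Double-reporter CG4 cells (mCherry in mature oligodendrocytes, EGFP in all lineage stages) proliferated 24 h, then given compounds at 1 μM for 5 days of differentiation, ⅔ medium changed at day 3. 9cis-RA as positive control, basal medium and 0.1% DMSO as negative; triplicates imaged by HCS, 35 fields/well.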

Another series concerns rat primary OPC cultures. Briefly: Differentiation of rat primary OPC into MBP+ OLs. The format is cell-based. The note with it: 96 h, 4 days of differentiation, read-out: MBP+ differentiation (MBP+/SOX10+ OLs plus compounds / plus basal medium). The essentials:
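Primary rat OPCs were differentiated for 4 days with compounds at […], in triplicate over 3 independent experiments. Cells were immunolabelled for CNPase, MBP and SOX10, and MBP+ oligodendrocytes were counted by imaging. Results are fold increase in MBP+/SOX10+ cells over basal medium; 9-cis-RA ([…]) was the positive control.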

Series [2] concerns H9-derived human neural stem cells. Briefly: Neurotoxic or regenerative effect screening (CellTiter-Glo). The format is cell-based. The following applies: 10 μM, three independent screenings. As to the method: H9-derived human neural stem cells (H9 hNSCs, Gibco) were cultured according to the manufacturer's instructions. Briefly, H9 hNSCs were expanded and subsequently differentiated in neurobasal medium, 2% B27, 1% Glutamax, and 1% penicillin/streptomycin, supplemented with 10 ng/ml BDNF (Peprotech), and 2 ng/ml recombinant human GDNF (Peprotech). After 7 days, 500 μM of db-cAMP (N6,2′-O-dibutyryladenosine 3′,5′-cyclic monophosphate, Sigma) was added.
The metabolic activity/viability of selected compounds (32 “Front Runners”+24 compounds from the “Short list”) was evaluated by CellTiter-Glo® Luminescent Cell Viability Assay. The primary screen of Front Runner List (32 compounds)+24 compounds from Short List) on H9-derived human neurons was performed at 10 μM concentration. The validation of hits from primary screen on H9-derived human neurons was performed at 10 μM concentration.
32 Front Runners were tested at 10 μM on H9-derived human neuronal cultures and viability was evaluated by CellTiter-Glo® Luminescent Cell Viability Assay.

A further series has as its system mouse cortical neurons. Briefly: Morphological integrity evaluation, NMDA 8 μM (MAP2 neurite length and branching). The format is cell-based. The following applies: 3 h pre-treatment, NMDA 8 μM 24 h, Z>0.5 criteria. The gist of the method:
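Mouse cortical neurons (14 DIV) pre-treated 3 h with compounds, then exposed 24 h to 8 μM NMDA; fixed, MAP2 immunostained with DAPI. Total neurite length and non-trunk branch number from 15 images/well, triplicates, converted to plate-based Z-scores; NAC positive, staurosporine and NMDA negative controls.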

Series [3] deals with mouse cortical and striatal neurons. Briefly: Morphological integrity evaluation, NMDA 20 μM. The note with it: 1 μM, 24 h pre-treatment, NMDA 20 μM 24 h. The format is cell-based. As to the method:
Morphological integrity evaluation. Mouse cortical and striatal neurons (14 DIV) cultured in MW96 plates were exposed to 1 uM to 60 uM concentrations of NMDA and relationship between the NMDA dose and fiber length was evaluated. […] Each of the compound was tested in quadruplicate. The fiber length was evaluated by MAP2 staining (please see the method described earlier).
42 compounds were screened to evaluate the morphological integrity of cortical and striatal neurons upon chronic (24 h) NMDA exposure at concentration of 20 μM with compounds pre-treatment (24 h) in preventive regimen (FIG. 17).

Series [4] deals with human iPS-derived neuroprecursors. Put plainly: Differentiation of human iPS-derived neuroprecursors into MBP+ oligodendrocytes. The format is cell-based. The following applies: 1 μM in minimal medium, p<0.05. The essentials:
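Human iPS-derived NPCs with doxycycline-inducible SOX10/OLIG2/NKX6.2 were differentiated, replated on day 7, then treated in minimal medium with compound at 1 μM (DMSO vehicle negative control, 60 ng/mL T3 positive control) until fixation on day 21. MBP+ cells were counted manually by immunocytochemistry against DAPI-counted nuclei.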

The subject of series [5] is murine cortical neurons (14 DIV). Put plainly: NMDA-mediated neuroprotective assay (CCK8 viability). The format is cell-based, mouse. The note with it: 1 μM, 3 h pre-treatment, NMDA 8 μM 24 h, p<0.05. As to the method: To assess neuroprotective activity of 160 selected non-toxic compounds on primary murine cortical neurons, obtained as described in the previous paragraph, ([…]), cultures were pre-treated with 1 μM compounds for either 3 or 24 hours, followed by 24 hours chronic stimulation with NMDA (8 μM) to induce neuronal damage. Each test plate included: a negative control (untreated), vehicle-treated control (0.02% vol/vol DMSO), a positive neurotoxic control—staurosporine 0.1 μM, a stressor—NMDA 8 μM, a positive neuroprotective control—NAC 300 μM, and a combination of stressor +neuroprotective molecule (NMDA+NAC). Cell viability was measured with Cell Counting Kit-8 assay compared to NMDA-treated control.
The potential neuroprotective activity of 160 selected non-toxic compounds was evaluated on murine cortical neurons (14 DIV) with either 3 h (FIG. 13) or 24 h compounds pre-treatment (FIG. 14). In assay with 3 h pre-treatment, 17 compounds were identified as potential NMDA-neuroprotective hits (marked with black asterisk in FIG. 13, stat. significant at p<0.05, Kruskal-Wallis test with post-hoc two-stage linear step-up procedure of Benjamini, Krieger and Yekutieli multiple comparison correction).

The test system of series [6] is neonatal mouse oligodendrocyte progenitor cells. Put plainly: MTT metabolic activity / toxicity assay on neonatal mouse OPCs. The format is cell-based. The following applies: 1 and 10 microM, viability vs DMSO. As to the method: Purified oligodendrocyte progenitor cells (OPC) obtained from neonatal mouse primary mixed glial cultures^25 were plated at the density of 6*10^4 cells/cm^2 into poly-L-lysine-coated 96 well plates. One day after plating, the cells were incubated with or without drugs (10, 1 and 0.1 μM) in DMSO (0.001% vehicle) for 48 hours. Compounds were screened for their ability to reduce [3-(4,5-dimethylthiazol-2-yl)-2,5-diphenyltetrazolium bromide (MTT)] using an automated microplate reader (Bio-rad, Hercules, CA, USA), as previously described.^25 MTT (0.25 mg/ml, Sigma-Aldrich, St Louis, MO) was added to the culture medium during the final 4 hours of incubation.
Toxicity of the full list of drugs (274) at 10 μM have been evaluated on neonatal mouse oligodendrocyte progenitor cells via metabolic activity by MTT. First, drugs able to reduce OPC viability were selected, identifying 90 compounds with a cytotoxic effect defined by the Efficacy Ratio ER (absorbance of drug/absorbance of vehicle; PMID: 28387380) (ER≤0.4) which have not been further investigated—and 44 drugs inhibiting OPC metabolism at lower level (0.5<ER<0.8)—which were analyzed in the next experimental setting. As a result, 90 compounds were cytotoxic, 44 compounds with low toxicity were retested at 1 and 0.1 μM, 140 compounds (ER>0.8) were non-toxic and were re-tested.

The subject of series [7] is double fluorescence CG4 cell line (rat OPC line). Put plainly: Toxicity assay (cell density) on double fluorescence CG4 line. The format is cell-based. The note with it: 1 and 10 microM, viability vs basal condition. The text has this:
Primary validation on CG4 line toxicity and differentiation. An innovative OPC line was developed for fast and reliable high content screening (HCS) of small compounds inducing oligodendrocyte differentiation. The line was genetically engineered by lentiviral transduction of rat CG4 cells (PubMed=1613821; DOI=10.1002/jnr.490310125; Louis J. C., Magal E., Muir D., Manthorpe M., Varon S.; CG-4, a new bipotential glial cell line from rat brain, is capable of differentiating in vitro into either mature oligodendrocytes or type-2 astrocytes. J. Neurosci. Res. 31:193-204(1992) to express mCherry fluorescent reporter (Evercooren, Anne & Avellana-Adalid, V. & Vitry, Sandrine & Nait-Oumesmar, Brahim & Lachapelle, Francois. (1997). Expansion of Oligodendrocyte Progenitors for Myelin Repair. 10.1007/978-1-4615-5949-8_21) in mature oligodendrocytes only, and EGFP at all stage of the oligodendroglial lineage: both the generation of mature oligodendrocytes (wmNl-mCherry) and the morphological changes associated with differentiation (CMV-EGFP) can be therefore monitored in a single assay. mCherry expression occurred only in O4+/GalC+ differentiated oligodendrocytes and GFP was ubiquitously expressed at all developmental stages. […]
Compounds (272) were tested at 1 μM, using a double fluorescence CG4 cell line (rat OPC line), 9 cis-retinoic acid (1 μM) served as a positive control.

Turning to `C=CCc1ccccc1OCC(O)CNC(C)C` (stereo not shown) [Alprenolol], the “CG4 differentiation compared with 9cis-RA positive control” value (from here on “CG4 differentiation”) in series [1] is recorded as “promoting differentiation significantly higher than 9cis-RA positive control”. In the series with rat primary OPC cultures, the fold induction at 1 µM was greater than 1.6. In addition, the “cumulative Z-scores of ATP production/viability” value in [2] is “potential hits”.

`O=c1[nH]c2cccc(N3CCN(Cc4cccc(-c5ccccc5)c4)CC3)c2o1` [Bifeprunox]: the “preservation of neurite length and network integrity (branching)” value in the series on mouse cortical neurons is “preserved both neurite length and the network integrity (branching)”; in the series on mouse cortical neurons (listed as BIFEPRUNOX), “two best-performing compounds”. Moreover, the “morphological integrity (neurite length) of cortical and striatal neurons” value (from here on “morphological integrity (neurite length)”) in [3] is “selected for confirmation”.

Take `Cc1c(Cn2c(C)nc3c(C(=O)O)cc(N4CCOCC4)cc32)cccc1C(F)(F)F` [GSK-2636771]: the “morphological integrity (neurite length)” value in series [3] is reported as “selected for confirmation”.

As to `COc1ccc(S(=O)(=O)n2cc(CCC(=O)O)c3cc(OC)ccc32)cc1` [Indeglitazar], the “CG4 differentiation” value in series [1] is recorded as “promoting differentiation significantly higher than 9cis-RA positive control”. For the same compound, the fold induction at 1 µM in the series with rat primary OPC cultures is greater than 1.6. Moreover, the “differentiation into MBP+ oligodendrocytes” value in [4] was “promote significantly (p<0.05) the differentiation into MBP+ oligodendrocytes”. In addition, the “cumulative Z-scores of ATP production/viability” value in [2] is on record as “potential hits”.

In the case of `Cc1ncc(OC[C@@]2(c3cccc(F)c3)C[C@H]2C(=O)Nc2ccc(F)cn2)c(C)n1` [Lemborexant], the “CG4 differentiation” value in series [1] is “promoting differentiation significantly higher than 9cis-RA positive control”. Also, the fold induction at 1 µM in the series with rat primary OPC cultures is greater than 1.6. The “cumulative Z-scores of ATP production/viability” value in [2] is “potential hits”.

For the compound `O=C(Oc1ccc(Br)cc1)N1CCN2CCC1CC2` [SSR180711], in [5], the “neuroprotection of viability/metabolic activity against NMDA” value is reported as “hit compounds”. In the series with mouse cortical neurons, the “preservation of neurite length and network integrity (branching)” value is “preserved both neurite length and the network integrity (branching); also recorded: two best-performing compounds”. In series [3], the “morphological integrity (neurite length)” value is listed as “selected for confirmation”.

For the compound `C[C@@H](C(=O)O)c1ccc(-c2ccccc2)c(F)c1` [Tarenflurbil], in [5], the “neuroprotection of viability/metabolic activity against NMDA” value is recorded as “trend versus significance”. The “morphological integrity (neurite length)” value in series [3] is given as “selected for confirmation”.

For the compound `O=C(N[C@@H]1CC[C@@H](c2cccc(F)c2F)CN(CC(F)(F)F)C1=O)N1CCC(n2c(=O)[nH]c3ncccc32)CC1` [Telcagepant], the “cytotoxicity on neonatal mouse OPCs” value in series [6] was “not toxic on oligodendrocytes”. Also, the “cytotoxicity on CG4 line” value in [7] is on record as “not toxic on oligodendrocytes”.

For `CCC(COC(=O)c1cc(OC)c(OC)c(OC)c1)(c1ccccc1)N(C)C` (stereo not shown) [Trimebutine], in series [3], the “morphological integrity (neurite length)” value was “hit-compound in both cortical and striatal neuronal assays”.
